Read-outs that look alike come from different tables or passages of the source.
Tests used:
[1] = biological target: T1, mushroom tyrosinase (Agaricus bisporus, UniProt C7FF04); assay: In vitro mushroom tyrosinase inhibition assay; format: biochemical
T1 construct: purchased Sigma-Aldrich Chemical Company (St. Louis, MO) and MP Biomedicals (Irvine, CA)
Experimental: The anti-tyrosinase potential of all the synthesised derivatives was determined by an enzymatic tyrosinase inhibition assay based on their ability to inhibit the substrate, L-tyrosine, from binding to the tyrosinase enzyme. […] Test samples were dissolved in DMSO at a concentration of 10 mM and then diluted to different concentrations with phosphate buffer (0.1 M, pH 6.8). Each well contained 40 µL of the sample with 80 µL of phosphate buffer solution (0.1 M, pH 6.8), 40 µL of tyrosinase enzyme (100 units/mL), and 40 µL L-tyrosine (2.5 mM). The mixture was incubated for 30 min at room temperature, and absorbance was measured at 490 nm. Each sample was accompanied by a sample blank containing all components except tyrosinase. […] The percentage of tyrosinase inhibition was calculated as follows: ((ΔAcontrol – ΔAsample)/ΔAcontrol) × 100. IC50 values denoted the sample concentration required to inhibit 50% tyrosinase activity (Table S1).

[2] = system: A375; assay: MTT antiproliferative/cytotoxicity assay, A375; format: cell-based, human; conditions: melanoma, MTT, 48 h, read-out: IC50 A375
Experimental: (§1) Human-derived GFP-expressing melanoma A375 and epidermoid carcinoma A431 cell lines were purchased from Angio-Proteomie (Boston, MA). Human melanoma carcinoma SK-MEL-28 and human immortalised keratinocytes (HaCaT) cell lines were acquired from American Type Culture Collection (ATCC; Manassas, VA). Human cutaneous SCC cell line SCC-12[192] was generously provided by Dr. James G. Rheinwald to Dr. Tatiana Efimova. Except SK-MEL-28, which was cultured in an RPMI-1640 medium supplemented with 5% FBS, all other human immortalised cell lines were grown and maintained in DMEM containing varying percentages of FBS; 5% FBS for A431, SCC-12, and HaCaT lines, and 10% FBS for A375. All culture media were routinely supplemented with 1% PEST 100X (100 U/mL penicillin, 100 μg/mL streptomycin), and cells were cultured in incubators maintained at 37 °C under an atmosphere of 95% humidity, 20% O2, and 5% CO2. The growth media of incubated cells were changed every 2–3 days until they attained 70–80% confluence, after which they were sub-cultured for experiments and re-passaging. DMSO was used as the vehicle to prepare a 10 mM stock solution of the test compounds.
(§2) Stock solutions (10 mM) were prepared by dissolving each compound to be screened in DMSO. From these stock solutions, escalating concentrations were prepared using the corresponding cell growth media as a diluent, and the cells (65–75% confluent) were treated with (0–40 µM) or without the drug in sext- to octuplicate and incubated for 48 h. All treatment protocols and controls were prepared as previously described.
(§3) The potency and cytotoxicity of the test compounds against two cutaneous melanoma (A375 and SK-MEL-28) and two non-melanoma (A431 and SCC-12) SC cell lines in addition to a control immortalised normal human epidermal keratinocytes (HaCaT) cell line were assessed by MTT assay as previously described.

[3] = system: SK-MEL-28; assay: MTT antiproliferative/cytotoxicity assay, SK-MEL-28; format: cell-based, human; conditions: melanoma, MTT, 48 h, read-out: IC50 SKMEL-28
Experimental: as §1, §2, §3

[4] = system: GFP-A431; assay: MTT antiproliferative/cytotoxicity assay, A431; format: cell-based, human; conditions: for IC50: non-melanoma, MTT, 48 h, read-out: IC50 GFP-A431; for selectivity index (SI) A431: IC50 HaCaT divided by IC50 A431
Experimental: (§4) Human-derived GFP-expressing melanoma A375 and epidermoid carcinoma A431 cell lines were purchased from Angio-Proteomie (Boston, MA). Human melanoma carcinoma SK-MEL-28 and human immortalised keratinocytes (HaCaT) cell lines were acquired from American Type Culture Collection (ATCC; Manassas, VA). […] The growth media of incubated cells were changed every 2–3 days until they attained 70–80% confluence, after which they were sub-cultured for experiments and re-passaging. DMSO was used as the vehicle to prepare a 10 mM stock solution of the test compounds.
(§5) Stock solutions (10 mM) were prepared by dissolving each compound to be screened in DMSO.

[5] = system: SCC-12; assay: MTT antiproliferative/cytotoxicity assay, SCC-12; format: cell-based, human; conditions: for IC50: non-melanoma, MTT, 48 h, read-out: IC50 SCC-12; for selectivity index (SI) SCC-12: IC50 HaCaT divided by IC50 SCC-12
Experimental: as §4, §5

[6] = system: HaCaT; assay: MTT cytotoxicity assay, noncancerous HaCaT keratinocytes; format: cell-based, human; conditions: Homo sapiens, HaCaT; control noncancerous keratinocytes, MTT, 48 h; read-out: IC50 HaCaT
Experimental: as §1, §2, §3

[7] = DPPH free radical scavenging assay; conditions: for Percent Scavenging (DPPH): 1 mM; for IC50: N.A. = No Activity, > 1000 = not biologically relevant, read-out: IC50 Value, DPPH antioxidant activity (Table S4)
Experimental: An initial screen was done of all 25 derivatives at a concentration of 1 mM. […] Methanol was used as the diluent, and 100 µL of DPPH (200 µM; Sigma-Aldrich, St. Louis, MO) was added to each well. […] The scavenging capacity (SC) was calculated as SC% = ((ΔAcontrol – ΔAsample)/ΔAcontrol) × 100%, where ΔAcontrol was the absorbance of the reagent blank, and ΔAsample was the absorbance of the test samples. The control contained all reagents except the compounds, and all tests were performed in triplicate. Quercetin served as a positive control. The DPPH methanolic solution (1 mL) mixed with DMSO (5 µL) served as a negative control.

[8] = 500 µM, single-concentration screen, read-out: % Inhibition of tyrosinase
[9] = > 500 = not biologically relevant, read-out: IC50 Value, mushroom tyrosinase inhibition (Table S1)

T1 sequence (C7FF04 1-392 limits assumed): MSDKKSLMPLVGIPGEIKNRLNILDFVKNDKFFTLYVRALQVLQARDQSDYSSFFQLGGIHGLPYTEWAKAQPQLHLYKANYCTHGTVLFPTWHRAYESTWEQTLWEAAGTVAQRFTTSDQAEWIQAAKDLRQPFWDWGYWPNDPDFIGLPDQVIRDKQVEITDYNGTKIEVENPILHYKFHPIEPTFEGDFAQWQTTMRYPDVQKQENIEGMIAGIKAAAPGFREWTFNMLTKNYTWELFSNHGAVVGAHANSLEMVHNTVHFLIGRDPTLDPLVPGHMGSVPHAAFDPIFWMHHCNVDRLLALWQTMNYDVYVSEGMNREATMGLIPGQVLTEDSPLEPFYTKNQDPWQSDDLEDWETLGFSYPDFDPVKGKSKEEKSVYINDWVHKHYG

Row | SMILES | inhibition at 500 µM [1, 8] | IC50 [1, 9] | IC50 ([2]; Homo sapiens, A-375, 48 h) | IC50 ([3]; Homo sapiens, SK-MEL-28, 48 h) | IC50 ([4]; Homo sapiens, A-431, 48 h) | IC50 ([5]; Homo sapiens, SCC12, 48 h) | IC50 [6] | Percent Scavenging (DPPH) [7] | IC50 [7] | selectivity index (SI) A431 [4] | selectivity index (SI) SCC-12 [5] | further results
1 | Cc1onc2c1CCc1ccccc1-2 [P12, 3-Methyl-4,5-dihydronaphtho[1,2-c]isoxazole] | 69.7 ± 5% | 336 µM | 73.5 ± 3.8 µM | 24 ± 2 µM | 55.5 ± 3.5 µM | 32.6 ± 2.1 µM | 32.6 ± 2.4 µM | -1.13% |  |  |  | 
2 | c1ccc(-c2cc(-c3ccccc3)n(-c3ccccc3)n2)cc1 [P13, 1,3,5-Triphenyl-1H-pyrazole] | 7.66% | > 500 µM | 93.4 ± 6.4 µM | 154 ± 2.9 µM | 181 ± 4.7 µM | 52.8 ± 2.2 µM | 91.6 ± 4.1 µM | 19.44% | > 1000 µM |  |  | 
3 | Cc1cc(-c2ccccc2)n(-c2ccccc2)n1 [P14, 3-Methyl-1,5-diphenyl-1H-pyrazole] | 97.4 ± 0.2% |  | 25.8 ± 2.7 µM | 33.3 ± 1.7 µM | 17.8 ± 0.5 µM | 42.5 ± 2.8 µM | 35.1 ± 2.8 µM | -23.93% |  | 2.0 | 0.8 | IC50 ([1]; L-tyrosine substrate, read-out: IC50 tyrosinase inhibition): 15.9 µM; DPPH antioxidant activity (in words) [7]: inactive
4 | FC(F)(F)c1cc(-c2ccccc2)n(-c2ccccc2)n1 [P15, 1,5-Diphenyl-3-(trifluoromethyl)-1H-pyrazole] | 32.2% | > 500 µM | 58.5 ± 3.4 µM | 36 ± 3.9 µM | 42.9 ± 1 µM | 98 ± 5.5 µM | 53.7 ± 3.1 µM | -23.36% |  |  |  | 
5 | Cc1cc(-c2ccccc2)n(-c2ccc(Br)cc2)n1 [P16, 1-(4-Bromophenyl)-3-methyl-5-phenyl-1H-pyrazole] | 17.3% | > 500 µM | 46 ± 1 µM | 39.1 ± 2.3 µM | 21 ± 1.3 µM | 19.6 ± 2 µM | 54.2 ± 3.6 µM | -24.61% |  | 2.6 | 2.8 | 
6 | Cc1cc(-c2ccccc2)n(-c2ccc(Cl)cc2)n1 [P17, 1-(4-Chlorophenyl)-3-methyl-5-phenyl-1H-pyrazole] | 95.6 ± 1.1% | 165 µM | 44.5 ± 3 µM | 34.2 ± 3.9 µM | 19.7 ± 0.8 µM | 23.4 ± 1.7 µM | 72.4 ± 6 µM | -23.30% |  | 3.7 | 3.1 | 
7 | COc1ccc(-n2nc(C)cc2-c2ccccc2)cc1 [P18, 1-(4-Methoxyphenyl)-3-methyl-5-phenyl-1H-pyrazole] | 92.2 ± 3.7% | 156 µM | 48 ± 2.1 µM | 19.3 ± 2.4 µM | 25.9 ± 0.9 µM | 21.9 ± 0.2 µM | 49.6 ± 1.5 µM | -24.28% |  | 2.0 | 2.3 | 
8 | CC1=NN(c2ccccc2)C(=O)C1(C)O (stereo not shown) [P20] | 39.7% | > 500 µM | 110 ± 15.4 µM | 50 ± 4.3 µM | 120 ± 2.6 µM | 57.3 ± 0.2 µM | 47.7 ± 2.7 µM | -20.03% |  |  |  | DPPH antioxidant activity (in words) [7]: no appreciable antioxidant activity
9 | O=C1CC(c2ccccc2)=NN1c1ccccc1 [P21] |  |  | 67.8 ± 2.3 µM |  |  |  | 50.1 ± 6.5 µM | 73.25% | 354 µM |  |  | IC50 ([1]; IC50 Value, mushroom tyrosinase inhibition (Table S1), > 500 = not biologically relevant): 295 µM; inhibition at 500 µM ([1]; read-out: % Inhibition of tyrosinase, 500 µM, single-concentration screen): 88.9 ± 0.4%; IC50 ([3]; Homo sapiens, SK-MEL-28): 42.7 ± 4 µM; IC50 ([4]; Homo sapiens, A-431): 58.6 ± 2.3 µM; IC50 ([5]; Homo sapiens, SCC12): 37.8 ± 3.2 µM
10 | O=C1CC(c2ccc(Br)cc2)=NN1c1ccc(Br)cc1 [P22] | 46.9% | > 500 µM | 29 µM | 31 µM | 13 µM | 19 µM | 47.6 ± 1.6 µM | 77.86% | 276 µM | 3.8 | 2.6 | IC50 [2]: 28.7 ± 1.2 µM; IC50 [3]: 31.3 ± 2.4 µM; IC50 [4]: 12.6 ± 1.6 µM; IC50 [5]: 18.7 ± 1.4 µM
11 | O=C1CC(c2ccc(Br)cc2)=NN1c1ccc(C(F)(F)F)cc1 [P23] | 37.6% | > 500 µM | 31.2 ± 1.5 µM | 27.4 ± 2.3 µM | 23.9 ± 1 µM | 21.7 ± 1.9 µM | 40.5 ± 1.5 µM | 77.61% | 196 µM | 1.7 | 1.9 | 
12 | O=C1CC(c2ccc(Br)cc2)=NN1c1ccccc1 [P24] | 35.2% | > 500 µM | 56.4 ± 1.7 µM | 54.1 ± 1.9 µM | 18.6 ± 0.9 µM | 141 ± 3.9 µM | 60.4 ± 3.2 µM | 75.14% | 444 µM | 3.3 | 0.4 | 

Source: publication PMC10187093, “Synthesis, in silico modelling, and in vitro biological evaluation of substituted pyrazole derivatives as potential anti-skin cancer, anti-tyrosinase, and antioxidant agents” (Journal of Enzyme Inhibition and Medicinal Chemistry, 2023)
